Results on two molecules are retold here after patent US20190030053A1, “COMPOSITION FOR INCREASING EXPRESSION OF PGC-1alpha” (BENEBIOSIS CO., LTD., priority 2016, published 2019).

Assay [1] has as its system PGC-1α and related genes. Put plainly: Gene expression in muscle cell test (C2C12). In kind it is cell-based. To be noted: C2C12 immature muscle cells, 24 hours. How it is done:
C2C12 immature muscle cells were prepared from the purchase from American Tissue Culture Collection (ATCC, USA). The cells were cultured in Dulbecco's modified Eagle's medium (DMEM, Gibco, USA) supplemented with 10% fetal bovine serum (FBS, USA) in a 5% CO2 incubator at 37° C. until the cells grew to confluency of 70%, while the medium was exchanged every two days. The differentiation into muscle cells was induced by culturing in a medium containing 2% horse serum (HS, Gibco, USA). The muscle cells cultured in the medium containing 2% HS for 4 days were treated with SL with various concentrations. The negative control group was treated with physiological saline with 1/1000 of the volume of the medium. The cells treated with each sample were incubated at 37° C. for 24 hours, and then washed twice with cool saline solution, and RNA was extracted using TRIzol agent (Invitrogen). cDNA was synthesized by using 1 μg/μl of RNA, which has been extracted as above and quantified, and a reverse transcription system (Promega, USA).
The expression patterns of PGC-1α and related genes were measured by using pre-designed primers and probes (Applied Biosystems; PGC-1α, Mm00447181_m1, GAPDH, and Mm99999915_q1) for the synthesized cDNA and analysis targets (Fndc5, PGC-1α, Erra, UCP1, SOD2, and GPX1). […]

For assay [2], the system named is PGC-1α and related genes. Kind of assay: Gene expression in brain and hippocampus of Alzheimer's disease models. In kind it is in vivo, mouse. To be noted: 3×Tg mice, oral 0.1 mg/kg/day, 10 weeks. An excerpt:
In order to investigate the changes in gene expression and cognitive ability by the treatment with SL (3′-SL & 6′-SL) compositions in Alzheimer's brain disease models, 6-week-old mice were purchased from Central Lab Animal (Korea). Water was freely accessible, and a commercially available pellet feed (Dooyeul Biotech, Korea) was given for two weeks. At 8 weeks of age, the mice were divided into three groups (composed of eight mice for each group): Eight 8-week-old male c57/BL6 mice (normal mice; initial body weight, average 35.6±3.3 g) treated with a normal diet were used for a control group. […]
Sialyllactose or DW was orally administered daily. […] The dietary intake and body weight change were measured every 5 days. […]
The gene expression changes by the treatment with SL (3′-SL & 6′-SL) compositions were quantitatively compared in two main organs (brain and hippocampus) associated with bran diseases. […] RNA was extracted by TRIzol agent (Invitrogen). cDNA was synthesized by using RNA, which has been extracted as above and quantified, and a reverse transcription system (Promega, USA). The expression patterns of PGC-1α and related genes were measured by using pre-designed primers and probes (Applied Biosystems; PGC-1α, Mm00447181_m1, GAPDH, and Mm99999915_q1) for the synthesized cDNA and analysis targets (Fndc5, PGC-1α, Erra, UCP1, BDNF, SOD2, and GPX1). […]

The test system of assay [3] is mouse aortic smooth muscle cells (MASMs). Put plainly: Intracellular H2O2 (ROS values, H2DCFDA) in MASMs of aging stimulation model mice. In kind it is cell-based. The following applies: MASMs from aging stimulation model mice; SL added to culture liquid. Here is the method:
In addition, for cell-level tests, mouse aortic smooth muscle cells (MASMs) were isolated from the control group fed with a high-fat diet (Rodent Diet with 60 kcal % fat) without SL administration (Griendling et al., 1991), and the SL (3′-SL & 6′-SL) compositions were added to the culture liquid, followed by incubation. For intracellular H2O2 measurement (ROS values), the cells were cultured in 12-well culture plates immersed in 0.1% bovin calf serum. The intracellular ROS values were measured using H2DCFDA. For assay, the cells were cultured together with H2DCFDA in HBSS buffer for 30 minutes. The cells were trypsinized, washed, and lysed in HBSS. The fluorescence values were measured immediately by a CytoFluor plate reader (FIG. 17a).
(§1) In FIGS. 17a and 17b, MASMs were extracted from the aging stimulation model mouse control group, and the SL (3′-SL & 6′-SL) compositions were added to the culture liquid to conduct comparison.
(§2) FIGS. 17a and 17b show the measurement results of intercellular H2O2 (ROS values) (FIG. 17a) and the measurement results of mitochondrial superoxide production (FIG. 17b).

For assay [4] the test system is unchanged. Kind of assay: Mitochondrial superoxide production (MitoSOX Red) in MASMs of aging stimulation model mice. In kind it is cell-based. To be noted: MASMs from aging stimulation model mice; SL added to culture liquid. Here is the method:
For the measurement of mitochondrial superoxide production, mitochondrial ROS was measured using MitoSOX Red (mitochondrial superoxide fluorescent marker). MASMs were extracted, and incubated with MitoSOX (4 μM) in the dark room at 37° C. for 20 minutes. The MitoSOX fluorescence was quantified by the cell fluorescence intensity read using a fluorescent plate reader (480 nm excitation/580 nm emission) (FIG. 17b).
as §1, §2

“Also recorded” adds a separate entry of the source.

`CC(=O)N[C@H]1[C@H]([C@H](O)[C@H](O)CO)O[C@@](O[C@H]2[C@@H](O)[C@@H](CO)O[C@@H](O[C@H]3[C@H](O)[C@@H](O)C(O)O[C@@H]3CO)[C@@H]2O)(C(=O)O)C[C@@H]1O` (stereo partly drawn) [3′-SL, α-NeuNAc-(2→3)-β-D-Gal-(1→4)-D-Glc]: in the assay on PGC-1α and related genes [1], the “expression levels of analysis targets (Fndc5, PGC-1α, Erra, UCP1, BDNF, SOD2, GPX1) vs negative control” value is listed as “significant increases; also recorded: lower than that of 6′-SL”. For the same molecule, in the assay on PGC-1α and related genes [2], the “expression levels of PGC-1α and related genes vs SL non-administration (Alzheimer's disease model) group” value is “relatively low compared with 6′-SL”. Further, the “intracellular H2O2 (ROS values)” value in assay [3] is recorded as “dropped the ROS values”. The mitochondrial superoxide production result in assay [4] is “inhibited the mitochondrial superoxide production”.
For the molecule `CC(=O)N[C@H]1[C@H]([C@H](O)[C@H](O)CO)O[C@@](OC[C@H]2O[C@@H](O[C@H]3[C@H](O)[C@@H](O)[C@H](O)O[C@@H]3CO)[C@H](O)[C@@H](O)[C@H]2O)(C(=O)O)C[C@@H]1O` [6′-SL, α-NeuNAc-(2→6)-β-D-Gal-(1→4)-D-Glc], in the assay on PGC-1α and related genes [1], the “expression levels of analysis targets (Fndc5, PGC-1α, Erra, UCP1, BDNF, SOD2, GPX1) vs negative control” value is recorded as “significant increases”. Further, in the assay with PGC-1α and related genes [2], the “expression levels of PGC-1α and related genes vs SL non-administration (Alzheimer's disease model) group” value is “very high”; the “expression levels of PGC-1α and related genes vs normal control group” value was “somewhat lower”. In addition, the “intracellular H2O2 (ROS values)” value in assay [3] is “dropped the ROS values”. Moreover, in assay [4], the mitochondrial superoxide production result is on record as “inhibited the mitochondrial superoxide production”.
